{
  "source": "paper PMC11187126",
  "about": "“Structure and dynamics of the pyroglutamylated RF-amide peptide QRFP receptor GPR103” (Nature Communications, 2024)",
  "molecular_target": "T1, GPR103 T215^5.39A (Homo sapiens, UniProt Q96P65, T215A)",
  "T1 construct": "we used human full-length QRFPR-encoding plasmids; expressed in transfected cells; host or cells: HEK293 cells (HEK293A in the flow cytometry section), pCAGGS vector",
  "T1 sequence (Q96P65 1-431 T215A)": "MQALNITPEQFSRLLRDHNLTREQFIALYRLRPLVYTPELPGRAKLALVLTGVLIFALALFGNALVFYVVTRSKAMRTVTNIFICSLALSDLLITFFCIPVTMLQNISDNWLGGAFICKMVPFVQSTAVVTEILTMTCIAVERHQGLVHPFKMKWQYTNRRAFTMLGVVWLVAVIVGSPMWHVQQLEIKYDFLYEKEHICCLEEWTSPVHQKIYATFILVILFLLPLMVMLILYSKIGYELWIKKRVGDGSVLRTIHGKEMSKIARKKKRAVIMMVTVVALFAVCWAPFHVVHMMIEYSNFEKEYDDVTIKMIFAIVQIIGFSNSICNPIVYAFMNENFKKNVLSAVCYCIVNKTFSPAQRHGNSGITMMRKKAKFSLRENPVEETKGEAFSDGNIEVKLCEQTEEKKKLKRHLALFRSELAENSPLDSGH",
  "assay": "TGFα shedding assay; Exp. level WT (1:1)",
  "assay_type": "cell-based",
  "protocol": "For the TGFα shedding assay and the flow cytometry analysis, we used human full-length QRFPR-encoding plasmids. Specifically, GPR103 was N-terminally modified with an HA signal sequence followed by a FLAG epitope and then a flexible linker ([…]; the FLAG epitope is underlined) and inserted into the pCAGGS vector. Plasmid encoding GPR103 mutants were generated using Quickchange Site-Directed Mutagensis kit (Agilent).\nThe TGFα shedding assay was performed as described previously with minor modifications. Plasmid transfection was performed in a 6-well plate with a mixture of 500 ng (per well in a 6-well plate) AP-TGFα-encoding plasmid and 200 ng GPR103-encoding plasmid. After 1-day culture, the transfected cells were harvested by trypsinization, pelleted by centrifugation at 190 × g for 5 min, and washed once with 5 mM HEPES (pH 7.4)-containing Hank’s Balanced Salt Solution (HBSS). After centrifugation, the cells were resuspended in 8 mL of the HEPES-containing HBSS. The cell suspension was seeded in a 96-well culture plate (cell plate) at a volume of 90 μL (per well hereafter) and incubated in a 37 °C incubator with 5% CO2 for 30 min. […] After spinning the cell plates at 190 × g for 2 min, 80 μL of conditioned media was transferred to an empty 96-well plate (conditioned media (CM) plate). Then, 80 μL of AP reaction solution (10 mM p-nitrophenylphosphate (p-NPP), 120 mM Tris-HCl (pH 9.5), 40 mM NaCl, and 10 mM MgCl2) was dispensed into the cell plates and the CM plates. Absorbance at 405 nm of the plates was measured using a microplate reader (SpectraMax 340 PC384, Molecular Devices) before and after 1-h incubation at room temperature. Ligand-induced AP-TGFα release was calculated by subtracting spontaneous AP-TGFα release signal from ligand-induced AP-TGFα release signal. The AP-TGFα release signals were fitted to a four-parameter sigmoidal concentration–response curve, using the Prism 10 software (GraphPad Prism). For each replicate experiment, the pEC50 parameter (negative logarithmic values of EC50 values) of the individual GPR103 mutants were normalized to that of the wild-type GPR103 performed in parallel, and resulting ∆pEC50 values were used to denote ligand response activity of the mutants. […]\nExp. le vel: WT (1:5 0)Exp. le vel: WT (1:5 0)Exp. le vel: WT (1:5 0)Exp. le vel: WT (1:2 0)Exp. le vel: WT (1:2 0)Exp. le vel: WT (1:1 0) […]\nL1 4N - t e r mA F2 5N - t e r mA I 2 6N - t e r mA Y 2 9N - t e r mA C 9 82 .5 7A T10 22 .6 1A Exp . l eve l: WT (1 :5)Exp . l evel : >WT (1 :1)Exp. le vel: WT (1:2 0)Exp. le vel: WT (1:2 0)Exp. le vel: WT (1:5 0)Exp . l eve l: WT (1 :1) […]\nExp. le vel: WT (1:1 0)Exp. le vel: WT (1:2 0) C 1 1 83 .2 5AExp. le vel: WT (1:5 0)Exp. le vel: WT (1:5 0)Exp. le vel: WT (1:2 0)Exp . l eve l: WT (1 :5) […]\nExp. le vel: WT (1:5 0)Exp. le vel: WT (1:1 0)Exp. le vel: WT (1:5 0) E203ECL2AExp . l evel : >WT (1 :1)Exp. le vel: WT (1:5 0)Exp. le vel: WT (1:5 0) […]\nExp . l eve l: WT (1 :1) F28Exp. le vel: WT (1:5 0) C 2 8 56 .4 7AExp. le vel: WT (1:2 0) WExp. le vel: WT (1:2 0) F28Exp. le vel: WT (1:5 0)Exp . l evel : >WT (1 :1) […]\nExp. le vel: WT (1:5 0)Exp. le vel: WT (1:5 0) C 3 2 77 .4 8AExp . l eve l: WT (1 :5)Exp . l evel : >WT (1 :1)Exp . l evel : >WT (1 :1) […]\nSuppl eme nt ary Figure 1 | Mutational analysis of GPR103. […]\nmutants. Data are presented as mean values ± SEM, normally n=3-5; dots), each performed in triplicate. b-d Cell-surface expression (b) and QRFP26-in-duced activation of GPR103 (c, d) were analyzed by the flow cytometry and the TGFα shedding assay, respectively. From the concentration–response curves (a), Emax (c) and ΔpEC50 (d) values relative to the wild type were calculated. Colors in the mutant bars indicate an expression level matching to that of titrated wild type. Statistical analyses were performed using the ordinary one-way ANOVA followed by Dunnett tests with the expression-matched […]",
  "note": "Where two headings read alike, the source gives them in different places. No end group written: not given here.",
  "data": [
    {"substance": "TSGPLGNLAEELNGYSRKKGGFSFRF-NH2 [QRFP26]", "values": [
      {"measurement": "Emax", "setting": "Exp. #1", "result": 95.52, "unit": "% WT"},
      {"measurement": "Emax", "setting": "Exp. #2", "result": 99.37, "unit": "% WT"},
      {"measurement": "Emax", "setting": "Exp. #3", "result": 104.64, "unit": "% WT"},
      {"measurement": "Emax", "setting": "mean, read-out: Emax", "result": 99.8, "unit": "%"},
      {"measurement": "EC50", "setting": "n = 3", "result": 6.46, "unit": "nM"},
      {"measurement": "Emax", "setting": "n = 3, read-out: Emax", "result": "103 ± 2.2", "unit": "%"}
    ]}
  ]
}
